Data from US11884647B2, “Compounds and methods for targeting pathogenic blood vessels” (THE REGENTS OF THE UNIVERSITY OF CALIFORNIA, priority 2019, dated 2024).
pKd: −log10 of the molar value. “Also recorded” adds a separate entry of the source.

Tests used:
[1] = system: choroidal endothelial cells; assay: Ex vivo model of choroidal angiogenesis (choroidal neovascularization); type: cell-based; details: 10 μM; for effect on new endothelial cells in choroidal angiogenesis: treatment starts after 7 days of angiogenesis, lasts two days, live/dead staining
Procedure: FIG. 2A-E. Comparison of compound 369 with the current anti-angiogenic drug in an ex vivo model of choroidal angiogenesis. A. A schematic diagram of the timeframe of the experiment. […] Treatment lasts for two days before cell death and survival are analyzed. B. Control experiment without any drug treatment at day 7. The white circle in the middle delineates the piece of choroid/RPE that was embedded to initiate neovascularization. C. […] Eylea was added at 10 μM. […] The compound was added at 10 μM. In B-D, green cells are live cells and red cells are dead cells. E. Quantitation of the experiments described in B-D. The amount of new endothelial cells in the untreated control is defined as 100%.

[2] = system: tumor endothelial cells (LL/2 lung cancer tumor); assay: Lung LL2 ex vivo model of tumor angiogenesis; type: cell-based, mouse; details: for cytotoxicity at 20 µM / cytotoxicity at 40 µM: Mus musculus, Endothelial cell, 48 h, read-out: Cell death
In short: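 Mouse LL2 tumor fragments (~0.5×0.5×0.3 mm) embedded in Matrigel and grown in endothelial growth medium at 37° C until endothelial outgrowth (about 4 days) before drug treatment. About 48 h after drug addition, stained 10 min with fluorescein diacetate/propidium iodide; live (green) and dead (red) cells imaged at 2× with fixed channel settings.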

PLXDC2 = PLXDC2 receptor activation (Gfi1b promotor luciferase reporter); type: cell-based; details: treatment 1 day
Excerpt: (§1) FIG. 5A-B show activation of PLXDC1 and PLXDC2 by small molecules. […] All compound treatments were done for 1 day. Basal promotor activity of the PLXDC1-expressing cells is defined as 1.

PLXDC1 = PLXDC1 receptor activation assay (Gfi1b promotor luciferase reporter); type: cell-based; details: treatment 1 day; basal activity of PLXDC1-expressing cells = 1
Excerpt: as §1

[3] = molecular target: T1, extracellular domain of PLXDC1 (PLXDC1-ECD) (Homo sapiens, UniProt Q8IUK5); assay: Binding to PLXDC1 extracellular domain by suppression of tryptophan fluorescence
T1 construct: the extracellular domain of PLXDC1 (PLXDC1-ECD)
T1 sequence (Q8IUK5 19-426 limits assumed): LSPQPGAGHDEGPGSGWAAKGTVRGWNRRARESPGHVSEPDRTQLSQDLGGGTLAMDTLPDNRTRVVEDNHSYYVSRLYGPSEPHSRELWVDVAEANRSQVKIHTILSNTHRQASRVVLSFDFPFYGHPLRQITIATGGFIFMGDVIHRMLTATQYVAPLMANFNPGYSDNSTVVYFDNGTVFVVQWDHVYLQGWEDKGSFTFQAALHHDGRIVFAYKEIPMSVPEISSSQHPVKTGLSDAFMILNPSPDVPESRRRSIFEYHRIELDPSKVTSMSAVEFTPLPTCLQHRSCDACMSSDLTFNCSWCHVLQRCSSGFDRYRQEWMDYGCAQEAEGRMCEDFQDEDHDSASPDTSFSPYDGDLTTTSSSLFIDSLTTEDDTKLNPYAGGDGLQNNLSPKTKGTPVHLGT
Procedure: The high affinity interaction between compound 346 (Table 3) and the extracellular domain of PLXDC1 (PLXDC1-ECD). […] Tryptophan fluorescence without the compound added is defined as 1. The estimated Kd value is 50 nM.

[4] = system: pathogenic blood vessels of the retina; assay: Ischemia-induced retinopathy in vivo; design: species or system mouse; details: subcutaneous injection during return to room air; n=10 retinas
Excerpt: A. Upper graph: Schematic diagram of the experimental design for ischemia-induced retinopathy. The high oxygen environment caused blood vessel loss (vaso-obliteration). In room air, loss of vessels triggered abnormal angiogenesis that generated pathogenic blood vessels on the top of the retina (marked in yellow in D). Treatment was applied during the return to room air by subcutaneous injection. […] Red signal is blood vessel marker. C. The same retinas in B with vaso-obliteration areas marked in white color. […] D. The same retinas in B with pathogenic blood vessels marked in yellow color. […] FIG. 7A includes a schematic diagram of the experimental design for ischemia-induced retinopathy. The high oxygen environment caused blood vessel loss (vaso-obliteration). In room air, loss of vessels triggered abnormal angiogenesis that generated pathogenic blood vessels on the top of the retina (marked in yellow in FIG. 7D). Treatment was applied during the return to room air by subcutaneous injection. […] The same retinas in B with vaso-obliteration areas marked in white color (FIG. 7C). […] The same retinas in B with pathogenic blood vessels marked in yellow color (FIG. 7D).

[5] = system: tumor / tumor blood vessels; assay: Tumor animal model, bolus IV injection at day 0, tumor growth and morphology; type: in vivo, mouse; details: versus control group
Excerpt: Treatment was done at day 0 by bolus IV injection. […] Treatment was done at day 0. […] Treatment was done at day 0.

[6] = system: tumor endothelial cells (CT26.CL25 colon cancer tumor); assay: Colon CT26 ex vivo model of tumor angiogenesis; type: cell-based; details: Mus musculus, CT26, 48 h, read-out: Cell death
In short: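 Explant pieces of CT26 tumor (about 0.075 mm^3) were embedded in Matrigel and grown in endothelial growth medium at 37 °C for about 7 days until endothelial outgrowth appeared, then treated. Cell death was read about 48 h after drug addition by fluorescein diacetate (live) and propidium iodide (dead) staining with red/green imaging.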

## Eylea: "The most commonly used drug for choroidal neovascularization, Eylea, can inhibit choroidal endothelial cell growth (as expected of an antiangiogenesis drug)" [reference compound]
[1]
  effect on new endothelial cells in choroidal angiogenesis: can inhibit choroidal endothelial cell growth

## CCCCCCCCCCCCOc1ccc(S(=O)(=O)c2cnc3ccc([S+](C)[O-])cc3c2N2CCC(N3CCC(N4CCCCC4)CC3)CC2)cc1 (stereo not shown) [compound 342, 4-([1,4′:1′,4″-terpiperidin]-1″-yl)-3-((4-(dodecyloxy)phenyl)sulfonyl)-6-(methylsulfinyl)quinoline]
[2]
  cytotoxicity at 20 µM: 60%
PLXDC2
  Gfi1b promotor activity in PLXDC2-expressing cells: activated the promotor activity in PLXDC2-expressing cells
PLXDC1
  Gfi1b promotor activity in PLXDC1-expressing cells: highly activated the promotor activity in PLXDC1-expressing cells

## CCCCCCCCCCCCCCOc1ccc(S(=O)(=O)c2cnc3ccc([S+](C)[O-])cc3c2N2CCC(N3CCC(N4CCN(CCO)CC4)CC3)CC2)cc1F (stereo not shown) [compound 369, 2-(4-(1′-(3-((3-fluoro-4-(tetradecyloxy)phenyl)sulfonyl)-6-(methylsulfinyl)quinolin-4-yl)-[1,4′-bipiperidin]-4-yl)piperazin-1-yl)ethanol]
[1]
  effect on new endothelial cells in choroidal angiogenesis: can kill the new endothelial cells in choroidal angiogenesis
[1]; two days treatment
  effect on healthy tissue (choroid and RPE): Choroid and RPE are still alive after the treatment; also recorded: without affecting the healthy tissue
[2]
  cytotoxicity at 20 µM: 20%

## O=c1[nH]cc(F)c(=O)[nH]1 [Fluorouracil, reference compound]
PLXDC1
  Gfi1b promotor activity in PLXDC1-expressing cells: does not activate this promoter

## CCCCCCCCCCCCCCOc1ccc(S(=O)(=O)c2cnc3ccc([S+](C)[O-])cc3c2N2CCC(N3CCC(N4CCN(C)CC4)CC3)CC2)cc1 (stereo not shown) [compound 346, 4-(4-(4-methylpiperazin-1-yl)-[1,4′-bipiperidin]-1′-yl)-6-(methylsulfinyl)-3-((4-(tetradecyloxy)phenyl)sulfonyl)quinoline]
[3]; different concentrations, fluorescence without compound = 1
  suppression of endogenous tryptophan fluorescence of PLXDC1-ECD: suppressed the endogenous tryptophan fluorescence of PLXDC1-ECD in a dose-dependent manner
[3]; estimated from dose-dependent suppression of PLXDC1-ECD tryptophan fluorescence
  pKd: 7.30
[4]
  healthy blood vessels in ischemia-induced retinopathy: improving the amount of healthy blood vessels
  pathogenic blood vessels in ischemia-induced retinopathy: specifically suppressed pathogenic blood vessels in vivo without affecting healthy blood vessels; also recorded: highly suppressed pathogenic blood vessels
[5]
  tumor growth (shrinkage): shrank the tumors significantly
[2]
  cytotoxicity at 20 µM: 20%
PLXDC2
  Gfi1b promotor activity in PLXDC2-expressing cells: activated the promotor activity in PLXDC2-expressing cells
PLXDC1
  Gfi1b promotor activity in PLXDC1-expressing cells: highly activated the promotor activity in PLXDC1-expressing cells

## CCCCOc1ccc(S(=O)(=O)c2cnc3ccc(SC)cc3c2N2CCCN(C)CC2)cc1 [compound 160, 3-((4-butoxyphenyl)sulfonyl)-4-(4-methyl-1,4-diazepan-1-yl)-6-(methylthio)quinoline]
[6]
  cytotoxicity at 40 µM: 100%
[2]
  cytotoxicity at 40 µM: 100%

## COc1ccc(S(=O)(=O)c2cnc3ccc(OC(F)(F)F)cc3c2NN2CCN(C)CC2)cc1OC [compound 88, 3-((3,4-dimethoxyphenyl)sulfonyl)-N-(4-methylpiperazin-1-yl)-6-(trifluoromethoxy)quinolin-4-amine]
[6]
  cytotoxicity at 40 µM: 60%
[2]
  cytotoxicity at 40 µM: 70%

## CCCCOc1ccc(S(=O)(=O)c2cnc3ccc([S+](C)[O-])cc3c2N2CCCN(CCN3CCCCC3)CC2)cc1 (stereo not shown) [compound 209, 3-((4-butoxyphenyl)sulfonyl)-6-(methylsulfinyl)-4-(4-(2-(piperidin-1-yl)ethyl)-1,4-diazepan-1-yl)quinoline]
[6]
  cytotoxicity at 40 µM: 90%
[2]
  cytotoxicity at 40 µM: 60%

## COc1ccc(S(=O)(=O)c2cnc3ccc(OC(F)(F)F)cc3c2NCCO)cc1OC [compound 69, 2-((3-((3,4-dimethoxyphenyl)sulfonyl)-6-(trifluoromethoxy)quinolin-4-yl)amino)ethan-1-ol]
[6]
  cytotoxicity at 40 µM: 0%
[2]; Lung LL2 ex vivo, Conc. 40 μm, 48 hrs
  48 hrs (morphology observations after 48 hours): 0
[2]; Lung LL2 ex vivo, Conc. 40 μm, drug treatment two days
  Cell death: 20%

## CCCCOc1ccc(S(=O)(=O)c2cnc3ccc(C(=O)OCC)cc3c2N2CCC(N3CCCN(C)CC3)CC2)cc1 [compound 211, ethyl 3-((4-butoxyphenyl)sulfonyl)-4-(4-(4-methyl-1,4-diazepan-1-yl)piperidin-1-yl)quinoline-6-carboxylate]
[6]
  cytotoxicity at 40 µM: 100%
[2]
  cytotoxicity at 40 µM: 100%

## CCc1ccc(S(=O)(=O)c2cnc3ccc(OC(F)(F)F)cc3c2N2CCCC(O)C2)cc1 (stereo not shown) [compound 82, 1-(3-((4-ethylphenyl)sulfonyl)-6-(trifluoromethoxy)quinolin-4-yl)piperidin-3-ol]
[6]
  cytotoxicity at 40 µM: 10%
[2]
  cytotoxicity at 40 µM: 60%

## CCCCOc1ccc(S(=O)(=O)c2cnc3ccc(SC)cc3c2N2CCCN(CCN3CCCCC3)CC2)cc1 [compound 206, 3-((4-butoxyphenyl)sulfonyl)-6-(methylthio)-4-(4-(2-(piperidin-1-yl)ethyl)-1,4-diazepan-1-yl)quinoline]
[6]
  cytotoxicity at 40 µM: 100%
[2]
  cytotoxicity at 20 µM: 30%

## CCc1ccc(S(=O)(=O)c2cnc3ccc(OC(F)(F)F)cc3c2-n2cncn2)cc1 [compound 51, 3-((4-ethylphenyl)sulfonyl)-4-(1H-1,2,4-triazol-1-yl)-6-(trifluoromethoxy)quinoline]
[6]
  cytotoxicity at 40 µM: 20%
[2]
  cytotoxicity at 40 µM: 100%

## CCCCOc1ccc(S(=O)(=O)c2cnc3ccc(SC)cc3c2N2CCC(N3CCCCC3)CC2)cc1 [compound 159, 4-([1,4′-bipiperidin]-1′-yl)-3-((4-butoxyphenyl)sulfonyl)-6-(methylthio)quinoline]
[6]
  cytotoxicity at 40 µM: 100%
[2]
  cytotoxicity at 40 µM: 100%

## CCc1ccc(S(=O)(=O)c2cnc3ccc(OC(F)(F)F)cc3c2NCCO)cc1 [compound 95, 2-((3-((4-ethylphenyl)sulfonyl)-6-(trifluoromethoxy)quinolin-4-yl)amino)ethan-1-ol]
[6]
  cytotoxicity at 40 µM: 0%
[2]
  cytotoxicity at 40 µM: 10%
